Assay results published in patent US20220330549A1, “USE OF N-BENZYLBENZAMIDE-BASED COMPOUND AS HERBICIDE” (Northwest A&F University, priority 2020, published 2022).

How the values were obtained:
Assay type in all cases: in vivo
Humulus scandens [1] = assay: Herbicidal activity test for indoor pre-emergence soil treatment; conditions: 150 g a.i./ha, visual inspection 21 days after treatment
In short: (§1)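 Compounds were formulated as 10% emulsifiable concentrates and sprayed onto the soil 24 h after sowing, at 150 g(a.i.)/ha. Soil was sandy loam (≤2% organic matter), with seeds under 0.5–2.0 cm cover, per NY/T 1155.3-2006. Visual 1–9 ratings relative to blank control were made after 21 days.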

Digitaria sanguinalis [2] = assay: Herbicidal activity test for indoor post-emergence spraying on stems and leaves; set-up: key: grade level by weed remaining vs blank control, e.g. 5 = 10.1-15%; conditions: 150 g a.i./ha, visual inspection 21 days after treatment
In short: (§2)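 Visual inspection at 21 days after treatment gave a level rating, each level defined as a percentage band of the weed remaining in the blank control area. Plants were sprayed on stems and leaves after emergence, following NY/T 1155.4-2006.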

Amaranthus retroflexus [3] = assay: as above; set-up: key: grade level by weed remaining vs blank control, e.g. 5 = 10.1-15%; conditions: 150 g a.i./ha, visual inspection 21 days after treatment
In short: as §2

green bristlegrass [4] = assay: as above; set-up: key: grade level by weed remaining vs blank control, e.g. 5 = 10.1-15%; conditions: 150 g a.i./ha, visual inspection 21 days after treatment
In short: as §2

Barnyard grass [5] = assay: as above; set-up: key: grade level by weed remaining vs blank control, e.g. 5 = 10.1-15%; conditions: 150 g a.i./ha, visual inspection 21 days after treatment
In short: as §2

Humulus scandens [6] = assay: as above; set-up: key: grade level by weed remaining vs blank control, e.g. 5 = 10.1-15%; conditions: 150 g a.i./ha, visual inspection 21 days after treatment
In short: as §2

Piemarker [7] = assay: as above; set-up: key: grade level by weed remaining vs blank control, e.g. 5 = 10.1-15%; conditions: 150 g a.i./ha, visual inspection 21 days after treatment
In short: as §2

green bristlegrass [8] = assay: Herbicidal activity test for indoor pre-emergence soil treatment; set-up: key: level 1-9; higher = more weed remaining vs blank control; conditions: 150 g a.i./ha, visual inspection 21 days after treatment
In short: as §1

Barnyard grass [9] = assay: as above; set-up: key: level 1-9; higher = more weed remaining vs blank control; conditions: 150 g a.i./ha, visual inspection 21 days after treatment
In short: as §1

Piemarker [10] = assay: as above; set-up: key: level 1-9; higher = more weed remaining vs blank control; conditions: 150 g a.i./ha, visual inspection 21 days after treatment
In short: as §1

Chenopodium album = assay: Field test for weed control in a corn field; conditions: 150 g a.i./ha, after treatment
In short: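 A corn-field efficacy trial following GB/T 17980.42-2000 tested post-emergence control of Chenopodium album. Test compounds formulated as 10% emulsifiable concentrates were diluted in water and sprayed at 150 g(a.i.)/ha when the corn had 2 leaves to 5 leaves, on 20 m^2 plots with 4 replicates. Herbicidal activity was rated on a 1-9 scale by damage symptoms and severity.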

nutgrass flatsedge = assay: Field test for weed control in a corn field; conditions: 150 g a.i./ha, after treatment
In short: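 A corn field efficacy trial following GB/T 17980.42-2000 assessed post-emergence control of nutgrass flatsedge. Test compounds were formulated as 10% emulsifiable concentrates, diluted in water, and sprayed at 150 g(a.i.)/ha when the corn had 2 to 5 leaves. Each treatment had 4 replicates on 20 m^2 plots. Herbicidal activity was graded on a 1-9 scale by damage symptoms and severity.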

Acalypha australis = assay: Field test for weed control in a corn field; conditions: 150 g a.i./ha, after treatment
In short: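 Post-emergence field trial in a corn field following GB/T 17980.42-2000. Test compounds were formulated as 10% emulsifiable concentrates, diluted in water, and sprayed at 150 g(a.i.)/ha when corn had 2 to 5 leaves, with 4 replicates on 20 m^2 plots. Mesotrione 25% oil dispersion served as the control agent. Weed control was scored on a 1-9 scale.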

Digitaria sanguinalis [11] = assay: Field test for weed control in a corn field; conditions: 150 g a.i./ha, after treatment
In short: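 Field trial in a corn field following GB/T 17980.42-2000. Test compounds were formulated as 10% emulsifiable concentrates, diluted in water and sprayed post-emergence at 150 g(a.i.)/ha when corn had 2 to 5 leaves, with 4 replicates on 20 m^2 plots. Control of Digitaria sanguinalis was scored on a 1-9 scale based on weed damage relative to the untreated blank area.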

Amaranthus retroflexus [12] = assay: Field test for weed control in a corn field; conditions: 150 g a.i./ha, 30 days after treatment
In short: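 Field efficacy trial in a corn field following GB/T 17980.42-2000. Test compounds were formulated as 10% emulsifiable concentrates, diluted in water and sprayed post-emergence when corn had 2 to 5 leaves. Each treatment covered 20 m^2 with 4 replicates. A 25% mesotrione oil dispersion served as control. Damage to Amaranthus retroflexus was rated on a 1-9 scale against untreated blank plots.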

green bristlegrass [13] = assay: Field test for weed control in a corn field; conditions: 150 g a.i./ha, after treatment
In short: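 Post-emergence weed control was tested in a corn field following GB/T 17980.42-2000. When the corn had 2 leaves to 5 leaves after sowing, 10% emulsifiable concentrates diluted in water were sprayed at 150 g(a.i.)/ha on 20 m^2 plots, four replicates per treatment. Effects on green bristlegrass were scored on a 1-9 damage scale relative to the blank control area.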

Convolvulus arvensis = assay: Field test for weed control in a corn field; conditions: 150 g a.i./ha, after treatment
In short: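 Field trial of weed control against Convolvulus arvensis in corn, run following GB/T 17980.42-2000. Test agents were formulated as 10% emulsifiable concentrates and sprayed in water at 150 g(a.i.)/ha when corn plants had 2 to 5 leaves. Each treatment was replicated 4 times on 20 m^2 plots, and 25% mesotrione oil dispersion served as the control agent.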

Barnyard grass [14] = assay: Field test for weed control in a corn field; conditions: 150 g a.i./ha, 30 days after treatment
In short: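 Corn-field efficacy trial following GB/T 17980.42-2000. Test compounds were formulated as 10% emulsifiable concentrates, diluted in water and sprayed post-emergence at 150 g(a.i.)/ha when corn had 2 to 5 leaves. Each treatment was replicated 4 times on 20 m^2 plots. Barnyard grass control was rated on a 1-9 damage scale.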

goosegrass = assay: Field test for weed control in a corn field; conditions: 150 g a.i./ha, after treatment
In short: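 Weed control efficacy against goosegrass was tested in a corn field following GB/T 17980.42-2000. Compounds formulated as 10% emulsifiable concentrates were diluted in water and sprayed post-emergence at 150 g(a.i.)/ha when corn had 2 to 5 leaves, with 4 replicates of 20 m^2 plots. Herbicidal activity was rated on a 1-9 scale by damage symptoms and severity.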

Solanum nigrum = assay: Field test for weed control in a corn field; conditions: 150 g a.i./ha, 30 days after treatment
In short: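 Post-emergence weed control was tested in a corn field following GB/T 17980.42-2000. Compounds were made into 10% emulsifiable concentrates, diluted in water and sprayed at 150 g(a.i.)/ha when corn had 2 to 5 leaves after sowing, in 20 m^2 plots with 4 replicates. Effects on Solanum nigrum were graded on a 1-9 scale relative to the blank control area.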

Portulaca oleracea = assay: Field test for weed control in a corn field; conditions: 150 g a.i./ha, after treatment
In short: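 Field efficacy trial in corn following GB/T 17980.42-2000. Test compounds were prepared as 10% emulsifiable concentrates, diluted in water, and sprayed at 150 g(a.i.)/ha when corn had 2 to 5 leaves after sowing. Plots were 20 m^2 with 4 replicates per treatment. Herbicidal activity was scored on a 1-9 scale from weed damage symptoms and severity.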

Gramineae = assay: Post-emergence herbicidal activity test in a paddy field; set-up: key: level scale; higher level = more weed left vs blank control; conditions: 150 g a.i./ha (penoxsulam control 250 g(a.i.)/h)
In short: (§3)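 Efficacy was visually estimated 15 and 30 days after spraying, grading weed coverage relative to an untreated neighbouring plot (level 2 = 0 to 2.5%, level 9 = 67.6 to 100%). Treatments were 150 g(a.i.)/ha from 10% emulsifiable concentrates applied at the 4-5 leaf rice stage, four repeats of 50 m^2 each.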

Cyperaceae = assay: as above; set-up: key: level scale; higher level = more weed left vs blank control; conditions: 150 g a.i./ha (penoxsulam control 250 g(a.i.)/h)
In short: as §3

Broadleaf weed = assay: as above; set-up: key: level scale; higher level = more weed left vs blank control; conditions: 150 g a.i./ha (penoxsulam control 250 g(a.i.)/h)
In short: as §3

Digitaria sanguinalis [15] = assay: Herbicidal activity test for indoor pre-emergence soil treatment; set-up: key: 1-9 levels; higher = more weed remaining vs blank control; conditions: 150 g a.i./ha, visual inspection 21 days after treatment
In short: as §1

Amaranthus retroflexus [16] = assay: as above; set-up: key: 1-9 levels; higher = more weed remaining vs blank control; conditions: 150 g a.i./ha, visual inspection 21 days after treatment
In short: as §1

| SMILES | Herbicidal Activity Humulus scandens (Humulus scandens [1]) | Herbicidal Activity Digitaria sanguinalis (Digitaria sanguinalis [2]) | Herbicidal Activity Amaranthus retroflexus (Amaranthus retroflexus [3]) | Herbicidal Activity Green bristlegrass (green bristlegrass [4]) | Herbicidal Activity Barnyard grass (Barnyard grass [5]) | Herbicidal Activity Humulus scandens (Humulus scandens [6]) | Herbicidal Activity Piemarker (Piemarker [7]) | Herbicidal Activity Green bristlegrass (green bristlegrass [8]) | Herbicidal Activity Barnyard grass (Barnyard grass [9]) | Herbicidal Activity Piemarker (Piemarker [10]) | Post-emergence weed control effect, Chenopodium album (Chenopodium album) | Post-emergence weed control effect, Nutgrass flatsedge (nutgrass flatsedge) | Post-emergence weed control effect, Acalypha australis (Acalypha australis) | Post-emergence weed control effect, Digitaria sanguinalis (Digitaria sanguinalis [11]) | Post-emergence weed control effect, Amaranthus retroflexus (Amaranthus retroflexus [12]) | Post-emergence weed control effect, Green bristlegrass (green bristlegrass [13]) | Post-emergence weed control effect, Convolvulus arvensis (Convolvulus arvensis) | Post-emergence weed control effect, Barnyard grass (Barnyard grass [14]) | Post-emergence weed control effect, Goose grass (goosegrass) | Post-emergence weed control effect, Solanum nigrum (Solanum nigrum) | further results |
| --- | --- | --- | --- | --- | --- | --- | --- | --- | --- | --- | --- | --- | --- | --- | --- | --- | --- | --- | --- | --- | --- |
| Cc1cccc(C(=O)NCc2ccc(F)cc2)c1 [Compound B02] | 2 (equivalent to 0 to 2.5% of the weed in the blank control area) | 1 | 1 | 1 | 1 | 1 | 1 | 1 | 1 | 2 (equivalent to 0 to 2.5% of the weed in the blank control area) | 1 | 2 (equivalent to 0 to 2.5% of the weed in the blank control area) | 2 (equivalent to 0 to 2.5% of the weed in the blank control area) | 2 (equivalent to 0 to 2.5% of the weed in the blank control area) | 1 | 1 | 1 | 1 | 2 (equivalent to 0 to 2.5% of the weed in the blank control area) | 2 (equivalent to 0 to 2.5% of the weed in the blank control area) | Post-emergence weed control effect, Portulaca oleracea (Portulaca oleracea): 1; Herbicidal activity 15 days after treatment Gramineae (Gramineae): 2 (equivalent to 0 to 2.5% of the weed in the blank control area); Herbicidal activity 30 days after treatment Gramineae (Gramineae): 2 (equivalent to 0 to 2.5% of the weed in the blank control area); Herbicidal activity 15 days after treatment Cyperaceae (Cyperaceae): 1; Herbicidal activity 30 days after treatment Cyperaceae (Cyperaceae): 1; Herbicidal activity 15 days after treatment Broadleaf weed (Broadleaf weed): 1; Herbicidal activity 30 days after treatment Broadleaf weed (Broadleaf weed): 1; Herbicidal Activity Digitaria sanguinalis (Digitaria sanguinalis [15]): 2 (equivalent to 0 to 2.5% of the weed in the blank control area); Herbicidal Activity Amaranthus retroflexus (Amaranthus retroflexus [16]): 1 |
| COc1ccc(OC)c(C(=O)NCc2cc(F)cc(F)c2)c1 [Compound A24] | 1 | 1 | 1 | 1 | 1 | 1 | 1 | 1 | 1 | 1 | 1 | 3 (equivalent to 2.6 to 5% of the weed in the blank control area) | 3 (equivalent to 2.6 to 5% of the weed in the blank control area) | 2 (equivalent to 0 to 2.5% of the weed in the blank control area) | 1 | 1 | 1 | 1 | 2 (equivalent to 0 to 2.5% of the weed in the blank control area) | 2 (equivalent to 0 to 2.5% of the weed in the blank control area) | Post-emergence weed control effect, Portulaca oleracea (Portulaca oleracea): 1; Herbicidal activity 15 days after treatment Gramineae (Gramineae): 1; Herbicidal activity 30 days after treatment Gramineae (Gramineae): 1; Herbicidal activity 15 days after treatment Cyperaceae (Cyperaceae): 1; Herbicidal activity 30 days after treatment Cyperaceae (Cyperaceae): 1; Herbicidal activity 15 days after treatment Broadleaf weed (Broadleaf weed): 1; Herbicidal activity 30 days after treatment Broadleaf weed (Broadleaf weed): 1; Herbicidal Activity Digitaria sanguinalis (Digitaria sanguinalis [15]): 1; Herbicidal Activity Amaranthus retroflexus (Amaranthus retroflexus [16]): 1 |
